According to PMC7749516, “Safety and nonclinical and clinical pharmacokinetics of PC945, a novel inhaled triazole antifungal agent” (Pharmacology Research & Perspectives, 2020):
In brackets after ≈: the same amount, converted by molar mass. Several values for one entry are separate records, joined by “and”; a condition that tells them apart may be missing. Equal entries are not always repeated.

How the values were obtained:
A. fumigatus infection = test system: A. fumigatus infection; design: method as in PMID 31263150; conditions: in vitro human alveolus bilayer model; cited from earlier work
[1] = Clinical pharmacokinetics, repeat inhaled dose in healthy subjects (Cohort 2); type: in vivo, human
Excerpt: (§1) Part one consisted of a single dose escalation study (Cohort 1) and a repeat dose study (Cohort 2) of inhaled PC945 in healthy subjects. Part two comprised a single dose study of inhaled PC945 in subjects with mild asthma (Cohort 3). The doses selected were predicted to achieve target lung concentrations above the IC90/MIC90 for A. fumigatus (based on data from a range of in vitro and in vivo systems) throughout a 24‐hour period and with a suitable safety margin based on animal toxicology data.
Nine healthy subjects (four males and five females; mean age: 33.2 years, mean weight: 66.5 kg, mean BMI: 23.53 kg/m^2) whose forced expiratory volume over 1 second (FEV1) and forced vital capacity (FVC) were ≥80% of predicted values with an FEV1/FVC ratio >0.7, received once daily doses of PC945 5 mg or placebo for 7 days (Cohort 2, PC945:placebo = 2:1).
Serial blood samples were collected to determine plasma PC945 concentrations. For the single dose study in healthy subjects and in subjects with mild asthma, blood samples were collected predose and at 0.25, 0.5, 1, 2, 4, 6, 8, 24, 30, and 48 hours postend of inhalation and at the follow‐up visit. For the repeat dose study, blood samples were collected (a) predose and at 0.25, 0.5, 1, 2, 4, 6, 8, 10, 12, and 24 hours postend of inhalation on Days 1 and 7, and 30 and 48 hours on Day 7; (b) predose on Days 5 and 6; (c) at the follow‐up visit.
Attainment of steady state was assessed by visual inspection of the predose plots during the 7‐day treatment period in human subjects.

[2] = First-in-human safety and tolerability (adverse events, spirometry); type: in vivo; conditions: for No. of subjects with treatment‐emergent adverse events attributed to study drug / Subjects with drug-related adverse event: Cough / Subjects with drug-related adverse event: Diarrhea / Subjects with drug-related adverse event: Dizziness / Subjects with drug-related adverse event: Fatigue / Subjects with drug-related adverse event: Feces soft / Subjects with drug-related adverse event: Headache / Subjects with drug-related adverse event: Lethargy / Subjects with drug-related adverse event: Muscle spasms / Subjects with drug-related adverse event: Nausea / Subjects with drug-related adverse event: Productive cough / Subjects with drug-related adverse event: Throat tightness: N = 6
Description: This PC945 first‐in‐human clinical trial (ClinicalTrials.gov Identifier: NCT02715570) was a two‐part randomized, placebo‐controlled study to assess the safety and tolerability of PC945 in both healthy subjects and subjects with mild asthma, conducted at Parexel Early Phase Clinical Unit (Harrow, UK). The study was considered single‐blind as the appearance of active and placebo doses were different, however, it was conducted in a double‐blind manner (employing separate dosing and assessment teams).
as §1
Safety was evaluated based on assessments of adverse events, physical examination, vital signs, 12‐lead electrocardiogram, spirometry and clinical laboratory tests. The verbatim terms used to identify adverse events were coded using the Medical Dictionary for Regulatory Activities (version 20.1). All adverse events were mapped to system organ class and preferred term.
Spirometry parameters (FEV1 and FVC) were measured in all subjects to evaluate the local tolerability and potential for bronchospasm of PC945 in accordance with American Thoracic Society/European Respiratory Society guidelines. Predicted values were calculated using National Health and Nutrition Examination Survey reference equations. ^18 , ^19

[3] = In vitro plasma protein binding; type: in vitro ADME; conditions: 0.1‐50 µmol/L
Description: Plasma protein binding of PC945 was determined by […] in pooled plasma samples from human, dog, rat, and mouse. PC945 was tested at 0.1, 1, 5, 25, and 50 µmol/L in plasma for each species. PC945‐containing plasma samples were centrifuged at 238 859 g for 20 hours at 37°C. Supernatant was removed and diluted. The concentration of unbound PC945 was determined using LC‐MS/MS, from which the extent of protein binding was calculated.

A. fumigatus strains = test system: A. fumigatus strains; design: method as in PMID 28223388; conditions: EUCAST method, 96 clinically isolated A. fumigatus strains; cited from earlier work
[4] = healthy subjects, 5 mg once daily, Day 1, geometric mean (CV%)
[5] = healthy subjects, 5 mg once daily, Day 7, geometric mean (CV%)
[6] = Cohort 1 healthy, single dose 0.5 mg
[7] = Cohort 1 healthy, single dose 2 mg
[8] = Cohort 1 healthy, single dose 5 mg
[9] = Cohort 1 healthy, single dose 10 mg
[10] = Cohort 2 healthy, 5 mg once daily for 7 days
[11] = Cohort 3 mild asthma, single dose 5 mg

Cc1cc(N2CCN(c3ccc(C(=O)Nc4ccc(F)cc4)cc3)CC2)ccc1OC[C@@H]1CO[C@@](Cn2cncn2)(c2ccc(F)cc2F)C1 [PC945]
Effect on A. fumigatus infection (A. fumigatus infection): inhibit A. fumigatus infection | AUC0–24h [1, 4]: 6510 (60.0) pg*h/mL | C max [1, 4]: 462 (68.0) pg/mL | t max ([1]; healthy subjects, 5 mg once daily, Day 1, median (range)): 2 h and 2.10 (2.08‐4.08) h | time of C max postend of inhalation ([1]; healthy subjects, 5 mg once daily, Day 7): 45 min | C max [1, 5]: 951 (58.7) pg/mL | t ½ [1, 5]: 132 (22.7) h | t max ([1]; healthy subjects, 5 mg once daily, Day 7, median (range)): 0.745 (0.240‐10.1) h | Cmax ([1]; human, inhaled doses, read-out: C max values obtained with inhaled doses): < 2 nM | Predicted time to steady state ([1]; once daily dosing, human): approximately 5 weeks | No. of subjects with treatment‐emergent adverse events attributed to study drug [2, 6]: 1 (16.67) n (%) | Subjects with drug-related adverse event: Cough [2, 6]: 0 n (%) | Subjects with drug-related adverse event: Diarrhea [2, 6]: 0 n (%) | Subjects with drug-related adverse event: Dizziness [2, 6]: 0 n (%) | Subjects with drug-related adverse event: Fatigue [2, 6]: 1 (16.67) n (%) | Subjects with drug-related adverse event: Feces soft [2, 6]: 0 n (%) | Subjects with drug-related adverse event: Headache [2, 6]: 0 n (%) | Subjects with drug-related adverse event: Lethargy [2, 6]: 0 n (%) | Subjects with drug-related adverse event: Muscle spasms [2, 6]: 0 n (%) | Subjects with drug-related adverse event: Nausea [2, 6]: 0 n (%) | Subjects with drug-related adverse event: Productive cough [2, 6]: 0 n (%) | Subjects with drug-related adverse event: Throat tightness [2, 6]: 0 n (%) | No. of subjects with treatment‐emergent adverse events attributed to study drug [2, 7]: 0 n (%) | Subjects with drug-related adverse event: Cough [2, 7]: 0 n (%) | Subjects with drug-related adverse event: Diarrhea [2, 7]: 0 n (%) | Subjects with drug-related adverse event: Dizziness [2, 7]: 0 n (%) | Subjects with drug-related adverse event: Fatigue [2, 7]: 0 n (%) | Subjects with drug-related adverse event: Feces soft [2, 7]: 0 n (%) | Subjects with drug-related adverse event: Headache [2, 7]: 0 n (%) | Subjects with drug-related adverse event: Lethargy [2, 7]: 0 n (%) | Subjects with drug-related adverse event: Muscle spasms [2, 7]: 0 n (%) | Subjects with drug-related adverse event: Nausea [2, 7]: 0 n (%) | Subjects with drug-related adverse event: Productive cough [2, 7]: 0 n (%) | Subjects with drug-related adverse event: Throat tightness [2, 7]: 0 n (%) | No. of subjects with treatment‐emergent adverse events attributed to study drug [2, 8]: 2 (33.33) n (%) | Subjects with drug-related adverse event: Cough [2, 8]: 0 n (%) | Subjects with drug-related adverse event: Diarrhea [2, 8]: 0 n (%) | Subjects with drug-related adverse event: Dizziness [2, 8]: 1 (16.67) n (%) | Subjects with drug-related adverse event: Fatigue [2, 8]: 0 n (%) | Subjects with drug-related adverse event: Feces soft [2, 8]: 1 (16.67) n (%) | Subjects with drug-related adverse event: Headache [2, 8]: 1 (16.67) n (%) | Subjects with drug-related adverse event: Lethargy [2, 8]: 1 (16.67) n (%) | Subjects with drug-related adverse event: Muscle spasms [2, 8]: 1 (16.67) n (%) | Subjects with drug-related adverse event: Nausea [2, 8]: 1 (16.67) n (%) | Subjects with drug-related adverse event: Productive cough [2, 8]: 0 n (%) | Subjects with drug-related adverse event: Throat tightness [2, 8]: 0 n (%) | No. of subjects with treatment‐emergent adverse events attributed to study drug [2, 9]: 2 (33.33) n (%) | Subjects with drug-related adverse event: Cough [2, 9]: 0 n (%) | Subjects with drug-related adverse event: Diarrhea [2, 9]: 1 (16.67) n (%) | Subjects with drug-related adverse event: Dizziness [2, 9]: 1 (16.67) n (%) | Subjects with drug-related adverse event: Fatigue [2, 9]: 0 n (%) | Subjects with drug-related adverse event: Feces soft [2, 9]: 0 n (%) | Subjects with drug-related adverse event: Headache [2, 9]: 1 (16.67) n (%) | Subjects with drug-related adverse event: Lethargy [2, 9]: 0 n (%) | Subjects with drug-related adverse event: Muscle spasms [2, 9]: 0 n (%) | Subjects with drug-related adverse event: Nausea [2, 9]: 1 (16.67) n (%) | Subjects with drug-related adverse event: Productive cough [2, 9]: 0 n (%) | Subjects with drug-related adverse event: Throat tightness [2, 9]: 0 n (%) | No. of subjects with treatment‐emergent adverse events attributed to study drug [2, 10]: 2 (33.33) n (%) | Subjects with drug-related adverse event: Cough [2, 10]: 0 n (%) | Subjects with drug-related adverse event: Diarrhea [2, 10]: 0 n (%) | Subjects with drug-related adverse event: Dizziness [2, 10]: 0 n (%) | Subjects with drug-related adverse event: Fatigue [2, 10]: 0 n (%) | Subjects with drug-related adverse event: Feces soft [2, 10]: 0 n (%) | Subjects with drug-related adverse event: Headache [2, 10]: 1 (16.67) n (%) | Subjects with drug-related adverse event: Lethargy [2, 10]: 0 n (%) | Subjects with drug-related adverse event: Muscle spasms [2, 10]: 0 n (%) | Subjects with drug-related adverse event: Nausea [2, 10]: 1 (16.67) n (%) | Subjects with drug-related adverse event: Productive cough [2, 10]: 0 n (%) | Subjects with drug-related adverse event: Throat tightness [2, 10]: 0 n (%) | No. of subjects with treatment‐emergent adverse events attributed to study drug [2, 11]: 0 n (%) | Subjects with drug-related adverse event: Cough [2, 11]: 0 n (%) | Subjects with drug-related adverse event: Diarrhea [2, 11]: 0 n (%) | Subjects with drug-related adverse event: Dizziness [2, 11]: 0 n (%) | Subjects with drug-related adverse event: Fatigue [2, 11]: 0 n (%) | Subjects with drug-related adverse event: Feces soft [2, 11]: 0 n (%) | Subjects with drug-related adverse event: Headache [2, 11]: 0 n (%) | Subjects with drug-related adverse event: Lethargy [2, 11]: 0 n (%) | Subjects with drug-related adverse event: Muscle spasms [2, 11]: 0 n (%) | Subjects with drug-related adverse event: Nausea [2, 11]: 0 n (%) | Subjects with drug-related adverse event: Productive cough [2, 11]: 0 n (%) | Subjects with drug-related adverse event: Throat tightness [2, 11]: 0 n (%) | Deaths or serious adverse events ([2]; all cohorts): no deaths or serious adverse events | Changes in lung function ([2]; healthy subjects): No clinically significant changes in lung function | Tolerability ([2]; single doses up to 10 mg and 5 mg daily for 7 days in healthy subjects, single 5 mg in mild asthma): well tolerated | Acute bronchospasm or significant change in lung function (>15% change from baseline) ([2]; subjects with mild asthma, single 5 mg): no evidence of acute bronchospasm or significant change in lung function | Irritancy ([2]; subjects with mild asthma, single dose 5 mg): No evidence of irritancy | Mean percentage protein bound ([3]; dog plasma): 91% and 91.1% | Mean percentage protein bound ([3]; human plasma): 96.6% | Mean percentage protein bound ([3]; mouse plasma): 96.2% | Mean percentage protein bound ([3]; rat plasma): 97.8% | Geometric mean minimum inhibitory concentration (MIC) (A. fumigatus strains): 0.17 µg/mL | MIC50 (A. fumigatus strains): 0.125 µg/mL (≈ 0.183 µM) | MIC90 (A. fumigatus strains): 1.0 µg/mL and 1 µg/mL
